Measured values published in patent US7407948B2, “Photosensitisers and their uses” (priority 2007, dated 2008).
Like-named read-outs stand apart in the source and are kept apart here.

Legend:
C. albicans = assay: Photoinactivation of yeast by phenoselenazinium derivatives (C. albicans); assay type: cell-based; conditions: 10 μM photosensitiser, 30 min 37° C., 665 nm laser, 3 J/cm^2 (10 mW/cm^2)
Protocol: (§1) 1 mM stock solutions of the photosensitisers were made up by solubilising the photosensitiser in dimethyl sulfoxide.
(§2) Bacteria (E. coli, S. aureus) and yeast (C. albicans) cells were grown at 37° C. until the cells reached the logarithmic growth phase. Bacterial cells were grown in nutrient media, yeast cells were grown in Sabouraud media (obtainable via Millipore Limited, Watford, England).
(§3) Following the incubation, the log phase cells were washed twice in 0.1 M pH7.0 potassium phosphate buffer. The cells were then resuspended in buffer to give 3.5×10^8 CFU/ml for E. coli and S. aureus, or 1.0×10^7 CFU/ml for C. albicans.
(§4) The cells were incubated for 30 min at 37° C. with 10 μM photosensitiser. Following the incubation 2 mL of the cell suspension was removed into a 30 mm sterile Petri dish. The cell containing dish was then illuminated with a 665 nm Ceramoptec diode laser (trade mark of Ceramoptec GmBH, Germany and obtainable from Biolitec, Germany), at a light dose of 3 J/cm^2 (10 mW/cm^2).
(§5) Cells of the illuminated and non illuminated cultures were serially diluted and plated on either: nutrient agar (E. coli and S. aureus) or sabouraud agar (C. albicans). The plates were incubated for 24 h (E. coli and C. albicans) or 48 h (S. aureus). The colonies on the plates were counted as a measure of cell survival.

E. coli = assay: Photoinactivation of bacteria by phenoselenazinium derivatives (E. coli); assay type: cell-based; conditions: 10 μM photosensitiser, 30 min 37° C., 665 nm laser, 3 J/cm^2 (10 mW/cm^2)
Protocol: as §1, §2, §3, §4, §5

S. aureus = assay: Photoinactivation of bacteria by phenoselenazinium derivatives (S. aureus); assay type: cell-based; conditions: 10 μM photosensitiser, 30 min 37° C., 665 nm laser, 3 J/cm^2 (10 mW/cm^2)
Protocol: as §1, §2, §3, §4, §5

[1] = test system: normal tissues surrounding the tumour (usually kidney); assay type: in vivo; conditions: arbitrary score 0-3, i.v. dose 1.67 μmol/Kg
Protocol: (§6) Tumour destruction was assessed in CBA/gy mice bearing subcutaneous CaNT tumours. The photosensitiser was administered intravenously at doses up to 16.7 μmol/kg. At various times after photosensitiser administration, the tumour was illuminated superficially with 60 J/cm^2, 50 mW/cm^2 light from a Paterson lamp using a 660±15 nm filter. Drug-light intervals ranged from 0 h (in practice, 1-2 minutes) up to 96 h. 72 h after illumination a cross sectional slice was removed from the centre of the tumour parallel to the incident light, an image of this was captured and the macroscopic necrotic area quantified using image analysis software. Necrosis was expressed as % area of the total tumour slice. % tumour necrosis in control tumours was generally <10%.
An arbitrary score 0-3 of the severity of damage to normal tissues surrounding the tumour (usually kidney) was also recorded. 0=no detectable damage; 1=minimal damage to one organ; 2=damage to more than one organ; 3=death
(§7) The phenoselenazinium compounds were dissolved and administered in a composition comprising 25% Solutol, 10% ethanol, 65% saline vehicle.

[2] = test system: subcutaneous CaNT tumours; assay: Anti-tumour efficacy in vivo (PDT, tumour necrosis); parameters: species or system CBA/gy mice; conditions: 60 J/cm^2 660±15 nm, 72 h after illumination
Protocol: as §6, §7

[3] = Partition coefficient log P; assay type: physicochemical; conditions: 2-octanol/0.1 M aqueous potassium phosphate at pH 7
Description: Partition coefficient (2-octanol/0.1 M aqueous potassium phosphate at pH 7): log P=>2.

[4] = Singlet oxygen yield relative to Methylene Blue; assay type: physicochemical; conditions: in methanol, relative to MB
[5] = i.v. dose 1.67 μmol/Kg, drug to light interval 0 h
[6] = i.v. dose 1.67 μmol/Kg, drug to light interval 1 h
[7] = i.v. dose 8.4 μmol/Kg, drug to light interval 1 h

Row | SMILES | Log change in CFU/mL (C. albicans) | Log change in CFU/mL (E. coli) | Log change in CFU/mL (S. aureus) | Normal tissue damage ([1]; drug to light interval 0 h) | Normal tissue damage ([1]; drug to light interval 1 h) | % tumour necrosis [2, 5] | % tumour necrosis [2, 6] | logP [3] | Singlet oxygen yield (relative to Methylene Blue) [4] | % tumour necrosis [2, 7] | % tumour necrosis ([2]; i.v. dose 4.18 μmol/Kg, drug to light interval 0 h) | % tumour necrosis ([2]; i.v. dose 6.26 μmol/Kg, drug to light interval 0 h) | % tumour necrosis ([2]; i.v. dose 8.34 μmol/Kg, drug to light interval 0 h) | % tumour necrosis ([2]; i.v. dose 0.84 μmol/Kg, drug to light interval 0 h) | % tumour necrosis ([2]; i.v. dose 0.84 μmol/Kg, drug to light interval 1 h) | % tumour necrosis ([2]; i.v. dose 8.4 μmol/Kg, drug to light interval 0 h) | % tumour necrosis ([2]; i.v. dose 16.7 μmol/Kg, drug to light interval 0 h)
1 | CN(C)c1ccc2nc3ccc(N(C)C)cc3[se+]c2c1.[I-] [Compound A, 3,7-N,N-dimethylamino-phenoselenazin-5-ylium iodide, reference compound] | 0.19 (0.06) log CFU/mL | 3.33 (0.01) log CFU/mL | 1.74 (0.41) log CFU/mL | 0 | 0 | 0% | 0% |  |  |  |  |  |  |  |  |  | 
2 | CCCCCCN(CCCCCC)c1ccc2nc3ccc(N(CCCCCC)CCCCCC)cc3[se+]c2c1 [Compound 5, 3,7-Bis-(N,N-dihexylamino)phenoselenazin-5-ylium iodide] | −0.03 (0.03) log CFU/mL | 0.02 (0.13) log CFU/mL | 0.18 (0.12) log CFU/mL |  |  | 0% |  | > 2 | 1.1 | 30% |  |  |  |  |  |  | 
3 | CCN(CC)c1ccc2nc3ccc(N(CC)CC)cc3[se+]c2c1 [Compound 3, 3,7-Bis-(N,N-diethylamino)phenoselenazin-5-ylium iodide] | 0.16 (0.22) log CFU/mL | 3.78 (0.28) log CFU/mL | 2.72 (0.87) log CFU/mL |  |  | 0% | 0% | 1.5 | 1.5 |  |  |  |  |  |  |  | 
4 | CCCCCN(CCCCC)c1ccc2nc3ccc(N(CCCCC)CCCCC)cc3[se+]c2c1 [Compound 4, 3,7-Bis-(N,N-dipentylamino)phenoselenazin-5-ylium iodide] | 0.17 (0.02) log CFU/mL | 3.66 (2.23) log CFU/mL | 0.95 (0.73) log CFU/mL |  |  | 10% |  | > 2 | 1.4 |  | 45% | 80% | 80% |  |  |  | 
5 | CCCCN(CCCC)c1ccc2nc3ccc(N(CCCC)CCCC)cc3[se+]c2c1 [Compound 1, 3,7-Bis-(N,N-dibutylamino)phenoselenazin-5-ylium bromide] | 0.00 (0.05) log CFU/mL | 5.48 (0.34) log CFU/mL | 0.21 (0.01) log CFU/mL |  |  | 88% | 88% | > 2 | 0.9 |  |  |  |  | 93% | 40% |  | 
6 | CCCN(CCC)c1ccc2nc3ccc(N(CCC)CCC)cc3[se+]c2c1 [Compound 2, 3,7-Bis-(N,N-dipropylamino)phenoselenazin-5-ylium iodide] | 0.35 (0.42) log CFU/mL | 3.16 (0.03) log CFU/mL | 1.70 (0.48) log CFU/mL |  |  | 55% |  | > 2 | 1.1 | 17% |  |  |  |  |  | 87% | 100%
7 | CCCCN(CCCC)c1ccc2nc3ccc(N(CCC)CCC)cc3[se+]c2c1 [Compound 6, 3-N,N-dibutylamino-7-N,N-dipropylamino-phenoselenazin-5-ylium iodide] | 6.12 (0.82) log CFU/mL | 6.54 (0.00) log CFU/mL | 2.66 (2.26) log CFU/mL |  |  | 75% | 15% | > 2 | 1.1 |  |  |  |  |  |  |  | 
